Source: PMC7144209, “Design, synthesis and anticancer activity of naphthoquinone derivatives” (Journal of Enzyme Inhibition and Medicinal Chemistry, 2020)

Columns and labels:
MGC-803 = test: MTT cell viability assay, MGC-803 cells; assay type: cell-based; settings: n = 3
U87 = test: MTT cell viability assay, U87 cells; assay type: cell-based; settings: 48 h, n = 3
[1] = test system: Bax, Bcl-2, cleaved PARP in SGC-7901 cells; test: Western blot of apoptosis-related proteins; assay type: cell-based, human
Protocol: (§1) RIPA lysis buffer was used to dissociate the treated cells. Cells were lysed and the supernatant was harvested after centrifuged for 30 min. The cell proteins were separated using Sodium dodecyl sulphate-polyacrylamide gel electrophoresis, and then they were transferred to the PVDF membranes. The membranes were blocked with skimmed milk solution (5%) for 2 h, then incubated with primary antibodies (1:1000, cst) for 20 h at 4 °C. The membranes were detected by chemiluminescence reagent after probed with the secondary antibody for 1 h.
Apoptosis is one of the main methods that result in cell death. In this study, Annexin V-FITC/PI kit was used to evaluate the cell apoptosis. […] To further, investigate whether the cell apoptosis induced by title compound, Western blot analysis was used to measure the effect of the compound on apoptosis of SGC-7901 cell. As reported that apoptosis pathway could be regulated by the activation of PARP and Bcl2 family proteins[40]^,[41].

[2] = test system: LC3-II, P62, Beclin1 in SGC-7901 cells; test: Western blot of autophagy-related proteins; assay type: cell-based, human; settings: SGC-7901, Western blot
Protocol: as §1
Autophagy is a process of lysosomal degradation that can deliver the cytoplasmic cargo to the lysosome. To assess whether compound 12 could promote autophagy on SGC-7901 cells, the expressions of autophagy-related proteins were examined. Autophagy will be switched on when LC3-I was converted into LC3-II, and the level of LC3-II involves in the formation of autophagosome. Meanwhile p62 is a marker of the degradative lysosome[43]^,[44]. As shown in Figure 6(A), compound can decrease the level of P62 and increase the expressions of LC3II and Beclin1.

SMMC-7721 = test: MTT cell viability assay, SMMC-7721 cells; assay type: cell-based; settings: Homo sapiens, 48 h, n = 3
SGC-7901 = test: MTT cell viability assay, SGC-7901 cells; assay type: cell-based, human; settings: n = 3
[3] = test system: GFP-LC3 in SGC-7901 cells; test: GFP-LC3 transfection, puncta by confocal microscopy; assay type: cell-based, human
Protocol: A plasmid GFP-tagged LC3 reporter gene (0.8 μg/500 μL) was transfected into SGC-7901 cells by Lipofectamine 2000, then cells were incubated for 24 h. After different treatments for 24 h, cells were fixed with 4% paraformaldehyde for 20 min, and washed three times with PBS. Finally, Laser confocal dishes were analysed using confocal microscope.
(§2) Another typical feature of autophagy is the accumulation of the acidic autophagic vacuoles (AVOs)[45]^,[46]. To verify the development of AVOs, Acridine Orange (AO) staining was used to examine whether the acidic vesicular organelles in SGC-7901 cells were increased. AO produces red fluorescence when it accumulates in acidic regions such as autophagy lysosomes and lysosomes and produces bright green fluorescence in the cytoplasm and the nucleus. […] GFP-LC3 indicating technique was also used to detect the autophagy at the same time. When autophagy is formed, multiple bright green fluorescent spots will form as the GFP-LC3 fusion protein can translate to autophagosome membrane. From Figure 6(C), compared to the blank control group, GFP-LC3 puncta were increased after cells treated with compound 12 (4 μM) meanwhile decreased after treated with compound 12 (4 μM) and 3-MA (500 μM).

SGC-7901 cells [4] = test: Colony formation assay; assay type: cell-based, human; settings: SGC-7901, 2, 4, 8 μM, 12 d
Protocol: SGC-7901 cells (8000/well) were seeded in 6-well plate, and treated with indicated concentrations of compound 12 (2 μM, 4 μM, 8 μM) for 12 d. The medium was removed and methanol (500 μL/well) was added to fix at the cells for 3 min. Then cells were stained with giemsa working fluid for 15 min and washed with PBS. The number of colonies was counted.

[5] = test system: PI3K/AKT/MTOR signalling pathway; test: Western blot of PI3K/AKT/MTOR pathway; assay type: cell-based, human
Protocol: as §1
As a therapeutic target for cancer, the PI3K/AKT/MTOR signalling pathway participates in regulating autophagy. Consequently, Western blot experiment was used to explore the impact of compound 12 on the level of phospho-PI3K, phospho-AKT and phospho-mTOR. […] 3-MA (3-methyladenine) is also a PI3K inhibitor[57], so compound 12 (4 μM) with 3-MA (500 μM) were used to treated the cells.

L02 = test: MTT cell viability assay, L02 cells; assay type: cell-based; settings: Homo sapiens, n = 3
[6] = test system: SGC-7901, MGC-803, SMMC-7721, U-87 cell lines; test: MTT anticancer activity, summary in words over the cell line panel; assay type: cell-based; settings: MTT assay
Protocol: MGC-803, SGC-7901, U87 and SMMC-7721 cells were plated in 96-well plate at 7000 per well. Cells were incubated with the different concentrations of the compounds for 48 h. Subsequently, MTT (0.5 mg/mL) were used to test the cell viability, then 150 μL DMSO was added to each well after cells were incubated for 4 h and the absorbance was measured at 492 nm.
Compounds 1–24 were detected for anticancer activities against SGC-7901, MGC-803, SMMC-7721, U-87 cell lines in vitro by the MTT assay, and ADM was used as the positive control. From Table 1, when the phenolic hydroxyls of naphthoquinone moiety were converted to ether, the activity was missing. […] So colony formation assay of this compound (Figure 4) was used to investigate the effect of it on cell proliferation in SGC-7901 cells. The experiment examined the ability for producing colonies after the cells were treated with the cell death agents[35]^,[36].

SGC-7901 cells [7] = test: Acridine orange (AO) staining of acidic vesicles; assay type: cell-based, human; settings: SGC-7901, 1, 2, and 4 μM, 48 h
Protocol: PH-sensitive Acridine orange (AO) was used to label acidic vesicles. Human gastric cancer cells were seeded in laser confocal dishes at 10,000/ml. After indicated treatment of compound 12 (1 μM, 2 μM, 4 μM) for 48 h, cells were stained with AO (1 μg/ml) for 15 min at the cell culture incubator. After the cells were washed by PBS, pictures were acquired under laser confocal microscope.
as §2

[8] = SGC-7901, increasing concentration (1, 2, 4 μM)
[9] = compound 12 4 μM with 3-MA 500 μM

CC(C)=CCC(OC(=O)CCC(=O)Nc1ccc(Oc2ccccc2)cc1)C1=CC(=O)c2c(O)ccc(O)c2C1=O (centres unmarked) [Compound 12, 1-(5,8-dihydroxy-1,4-dioxo-1,4-dihydronaphthalen-2-yl)-4-methylpent-3-en-1-yl-4-oxo-4-((4-phenoxyphenyl)amino)butanoate]
IC50 (MGC-803; 48 h): 4.1 ± 0.6 µM | IC50 (MGC-803; Homo sapiens, MGC-803, 48 h): 4.07 µM | IC50 (U87): 3.8 ± 0.2 µM | IC50 (U87; Homo sapiens, U-87 MG): 3.85 µM | level of Bax [1, 8]: up-regulated | level of Bcl2 [1, 8]: down-regulated | level of cleaved PARP [1, 8]: up-regulated | up-regulation of Bax and cl-PARP and down-regulation of Bcl-2 in the group with 3-MA ([1]; compound 12 with 3-MA 500 μM, 48 h): inhibited | expression of Beclin1 [2]: increase | expression of LC3II [2]: increase | level of P62 [2]: decrease | IC50 (SMMC-7721): 20.6 ± 0.4 µM | IC50 (SGC-7901; 48 h): 4.1 ± 2.6 µM | IC50 (SGC-7901; Homo sapiens, SGC-7901, 48 h): 4.09 µM | GFP-LC3 puncta vs blank control ([3]; SGC-7901, compound 12 4 μM): increased | GFP-LC3 puncta ([3]; SGC-7901, compound 12 4 μM and 3-MA 500 μM): decreased | number of colonies vs control (SGC-7901 cells [4]): decreased | expression of p-AKT ([5]; 1, 2, 4 μM, 48 h): decreased in a dose-dependent manner | expression of p-MTOR ([5]; 1, 2, 4 μM, 48 h): decreased in a dose-dependent manner | expression of p-PI3K ([5]; 1, 2, 4 μM, 48 h): decreased in a dose-dependent manner | ratio of p-AKT/AKT compared with compound 12 alone [5, 9]: increased | ratio of p-MTOR/MTOR compared with compound 12 alone [5, 9]: increased | ratio of p-PI3K/PI3K compared with compound 12 alone [5, 9]: increased | IC50 (L02): > 50 µM | anticancer activity (in words) [6]: good activity | red fluorescently labelled acidic vesicles (AO staining) (SGC-7901 cells [7]): accumulated obviously
